Patent publication US10167288B2, “Substituted pyrazolylpyrazole derivative and use of same as herbicide” (KYOYU AGRI CO., LTD., priority 2015, dated 2019)

Legend:
Type in all cases: in vivo
Digitaria ciliaris [1] = assay: Weed foliar treatment test (Test Example 4); details: 10 g a.i./10 a; foliar spray at 4.0 to 5.0 leaf stage of Digitaria ciliaris (plant height 10 cm to 15 cm); 20 days, 25° C.
Protocol: (§1) 4. Weed Foliar Treatment Test
(§2) Field soil was filled into a 1/4500 are pot followed by seeding with Digitaria ciliaris and Galinsoga parviflora, covering with soil and cultivating in a glass greenhouse at an average atmospheric temperature of 25° C.
(§3) Wettable powders of Target Compound (I) shown in Table 1 prepared in compliance with the preparation examples were diluted with water to the prescribed amount of chemical and uniformly sprayed onto the weeds using 100 liters of sprayed water per 10 are when Digitaria ciliaris had grown to the 4.0 to 5.0 leaf stage (plant height: 10 cm to 15 cm).
(§4) After treating for 20 days in a glass greenhouse at an average atmospheric temperature of 25° C., the herbicidal efficacy thereof was investigated.
(§5) Evaluation of herbicidal efficacy was carried out in the same manner as the above-mentioned Test Example 1.

Galinsoga parviflora = assay: Weed foliar treatment test (Test Example 4); details: 10 g a.i./10 a; foliar spray at 4.0 to 5.0 leaf stage of Digitaria ciliaris (plant height 10 cm to 15 cm); 20 days, 25° C.
Protocol: as §1, §2, §3, §4, §5

Digitaria ciliaris [2] = assay: Farming soil treatment test; details: soil surface spray prior to weed growth, 30 days, 30° C.
Protocol: (§6) 2. Farming Soil Treatment Test Field soil was filled into a 1/6000 are pot followed by seeding with Digitaria ciliaris Chenopodium album and Amaranthus retroflexus and covering with soil. Wettable powders of compounds of formula (I) shown in Table 1 prepared in compliance with the preparation examples were diluted with water to the prescribed amount of chemical and uniformly sprayed onto each soil surface layer using 100 liters of sprayed water per 10 are prior to weed growth following seeding. After treating for 30 days in a glass greenhouse at an average atmospheric temperature of 30° C., the herbicidal efficacy thereof was investigated. Evaluation of herbicidal efficacy was carried out in the same manner as the above-mentioned Test Example 1.

Chenopodium album [3] = assay: Farming soil treatment test; details: soil surface spray prior to weed growth, 30 days, 30° C.
Protocol: as §6

Amaranthus retroflexus [4] = assay: Farming soil treatment test; details: soil surface spray prior to weed growth, 30 days, 30° C.
Protocol: as §6

Echinochloa crus-galli = assay: Paddy herbicidal activity test; details: dropped into paddy water at 3.5 leaf stage of Echinochloa crus-galli, 30 days, 30° C., vs untreated group
Protocol: (§7) 1. Paddy Herbicidal Activity Test
(§8) Rice paddy soil was filled into a 1/10000 are pot followed by the addition of suitable amounts of water and chemical fertilizer, kneading, seeding with Echinochloa crus-galli, Monochoria vaginalis and Scirpus juncoides and maintaining in an irrigated state at a water depth of 3 cm.
(§9) Wettable powders of Target Compound (I) shown in Table 1 prepared in compliance with the preparation examples were diluted with a suitable amount of water, rice plants in the 2.0 leaf stage were transplanted during 3.5 leaf stage of Echinochloa crus-galli, and treated by dropping in chemical in the prescribed amount per 10 are using a pipette.
(§10) After treating for 30 days in a glass greenhouse at an average atmospheric temperature of 30° C., the herbicidal efficacy thereof was investigated.
(§11) Evaluation of herbicidal efficacy was carried out by comparing growth inhibition rate (%) with an untreated group, while evaluation of phytotoxicity was carried out by comparing growth inhibition rate (%) with the state of a complete eradication group, and were evaluated at 11 levels indicated below.

Scirpus juncoides = assay: Paddy herbicidal activity test; details: dropped into paddy water at 3.5 leaf stage of Echinochloa crus-galli, 30 days, 30° C., vs untreated group
Protocol: as §7, §8, §9, §10, §11

Monochoria vaginalis = assay: Paddy herbicidal activity test; details: dropped into paddy water at 3.5 leaf stage of Echinochloa crus-galli, 30 days, 30° C., vs untreated group
Protocol: as §7, §8, §9, §10, §11

Oryza sativa = assay: Paddy herbicidal activity test, phytotoxicity to transplanted rice; details: rice transplanted in the 2.0 leaf stage, 30 days, 30° C., vs complete eradication group
Protocol: as §7, §8, §9, §10, §11

Digitaria ciliaris [5] = assay: Weed foliar treatment test (Test Example 3); details: foliar spray at 1.0 to 2.0 leaf stage of Digitaria ciliaris, 3 weeks, 25° C.
Protocol: (§12) 3. Weed Foliar Treatment Test
(§13) Soil was filled into a 1/6000 are pot followed by seeding with Digitaria ciliaris, Chenopodium album and Amaranthus retroflexus, covering with soil, and cultivating in a glass greenhouse at an average atmospheric temperature of 25° C.
(§14) Wettable powders of Target Compound (I) shown in Table 1 prepared in compliance with the preparation examples were diluted with water to the prescribed amount of chemical and uniformly sprayed onto the weeds using 150 liters of sprayed water per 10 are when Digitaria ciliaris had grown to the 1.0 to 2.0 leaf stage.
(§15) After treating for 3 weeks in a glass greenhouse at an average atmospheric temperature of 25° C., the herbicidal efficacy thereof was investigated.
as §5

Chenopodium album [6] = assay: Weed foliar treatment test (Test Example 3); details: foliar spray at 1.0 to 2.0 leaf stage of Digitaria ciliaris, 3 weeks, 25° C.
Protocol: as §12, §13, §14, §15, §5

Amaranthus retroflexus [7] = assay: Weed foliar treatment test (Test Example 3); details: foliar spray at 1.0 to 2.0 leaf stage of Digitaria ciliaris, 3 weeks, 25° C.
Protocol: as §12, §13, §14, §15, §5

SMILES | herbicidal efficacy, Digitaria ciliaris (Digitaria ciliaris [1]) | herbicidal efficacy, Galinsoga parviflora (Galinsoga parviflora) | herbicidal efficacy, Digitaria ciliaris (Digitaria ciliaris [2]; 5 g a.i./10 a) | herbicidal efficacy, Digitaria ciliaris (Digitaria ciliaris [2]; 10 g a.i./10 a) | herbicidal efficacy, Chenopodium album (Chenopodium album [3]; 5 g a.i./10 a) | herbicidal efficacy, Chenopodium album (Chenopodium album [3]; 10 g a.i./10 a) | herbicidal efficacy, Amaranthus retroflexus (Amaranthus retroflexus [4]; 5 g a.i./10 a) | herbicidal efficacy, Amaranthus retroflexus (Amaranthus retroflexus [4]; 10 g a.i./10 a) | herbicidal efficacy, Echinochloa crus-galli (Echinochloa crus-galli; 1 g a.i./10 a) | herbicidal efficacy, Echinochloa crus-galli (Echinochloa crus-galli; 5 g a.i./10 a) | herbicidal efficacy, Scirpus juncoides (Scirpus juncoides; 1 g a.i./10 a) | herbicidal efficacy, Scirpus juncoides (Scirpus juncoides; 5 g a.i./10 a) | herbicidal efficacy, Monochoria vaginalis (Monochoria vaginalis; 1 g a.i./10 a) | herbicidal efficacy, Monochoria vaginalis (Monochoria vaginalis; 5 g a.i./10 a) | phytotoxicity, Oryza sativa (Oryza sativa; 1 g a.i./10 a) | phytotoxicity, Oryza sativa (Oryza sativa; 5 g a.i./10 a) | herbicidal efficacy, Digitaria ciliaris (Digitaria ciliaris [5]; 5 g a.i./10 a) | herbicidal efficacy, Digitaria ciliaris (Digitaria ciliaris [5]; 10 g a.i./10 a) | herbicidal efficacy, Chenopodium album (Chenopodium album [6]; 5 g a.i./10 a) | herbicidal efficacy, Chenopodium album (Chenopodium album [6]; 10 g a.i./10 a) | also measured
CCCOC(=O)Nc1c(C#N)cnn1-c1nn2c(c1Cl)CCCC2 [Compound 4] | 10 (100%) | 10 (100%) |  |  |  |  |  |  |  |  |  |  |  |  |  |  |  |  |  |  | 
COC(=O)Nc1c(C#N)cnn1-c1nn2c(c1Cl)CCC2 [Compound 3] | 10 (100%) | 10 (100%) | 10 (100%) | 10 (100%) | 9 (90% to less than 100%) | 10 (100%) | 10 (100%) | 10 (100%) | 10 (100%) | 10 (100%) | 9 (90% to less than 100%) | 10 (100%) | 10 (100%) | 10 (100%) | 1 (10% to less than 20%) | 1 (10% to less than 20%) | 10 (100%) | 10 (100%) | 10 (100%) | 10 (100%) | herbicidal efficacy, Amaranthus retroflexus (Amaranthus retroflexus [7]; 5 g a.i./10 a): 10 (100%); herbicidal efficacy, Amaranthus retroflexus (Amaranthus retroflexus [7]; 10 g a.i./10 a): 10 (100%)
CCOC(=O)Nc1c([N+](=O)[O-])cnn1-c1nn2c(c1Cl)CCCC2 [Control agent 2.28, reference compound] | 1 (10% to less than 20%) | 2 (20% to less than 30%) | 1 (10% to less than 20%) | 2 (20% to less than 30%) | 4 (40% to less than 50%) | 5 (50% to less than 60%) | 3 (30% to less than 40%) | 5 (50% to less than 60%) | 1 (10% to less than 20%) | 2 (20% to less than 30%) | 1 (10% to less than 20%) | 2 (20% to less than 30%) | 3 (30% to less than 40%) | 4 (40% to less than 50%) | 0 (0% to less than 10% (growth inhibition rate)) | 1 (10% to less than 20%) | 2 (20% to less than 30%) | 4 (40% to less than 50%) | 6 (60% to less than 70%) | 7 (70% to less than 80%) | herbicidal efficacy, Amaranthus retroflexus (Amaranthus retroflexus [7]; 5 g a.i./10 a): 3 (30% to less than 40%); herbicidal efficacy, Amaranthus retroflexus (Amaranthus retroflexus [7]; 10 g a.i./10 a): 6 (60% to less than 70%)
CCSC(=O)Nc1c(C#N)cnn1-c1nn2c(c1Cl)CCCC2 [Compound 11] | 10 (100%) | 10 (100%) |  |  |  |  |  |  |  |  |  |  |  |  |  |  |  |  |  |  | 
COC(=O)Nc1c(C#N)cnn1-c1nn2c(c1Cl)CCCC2 [Compound 7] | 10 (100%) | 10 (100%) | 10 (100%) | 10 (100%) | 9 (90% to less than 100%) | 10 (100%) | 10 (100%) | 10 (100%) | 10 (100%) | 10 (100%) | 9 (90% to less than 100%) | 10 (100%) | 10 (100%) | 10 (100%) | 1 (10% to less than 20%) | 1 (10% to less than 20%) | 10 (100%) | 10 (100%) | 10 (100%) | 10 (100%) | herbicidal efficacy, Amaranthus retroflexus (Amaranthus retroflexus [7]; 5 g a.i./10 a): 10 (100%); herbicidal efficacy, Amaranthus retroflexus (Amaranthus retroflexus [7]; 10 g a.i./10 a): 10 (100%)
CC(C)COC(=O)Nc1c(C#N)cnn1-c1nn2c(c1Cl)CCCC2 [Compound 10] | 10 (100%) | 10 (100%) |  |  |  |  |  |  |  |  |  |  |  |  |  |  |  |  |  |  | 
CCOC(=O)Nc1c(C#N)cnn1-c1nn2c(c1Cl)CCCC2 [Compound 1, Ethyl N-(1-(3-chloro-4,5,6,7-tetrahydropyrazolo[1,5-a]pyridin-2-yl)-4-cyanopyrazol-5-yl) Carbamate] | 10 (100%) | 10 (100%) | 10 (100%) | 10 (100%) | 10 (100%) | 10 (100%) | 10 (100%) | 10 (100%) | 10 (100%) | 10 (100%) | 10 (100%) | 10 (100%) | 10 (100%) | 10 (100%) | 1 (10% to less than 20%) | 1 (10% to less than 20%) | 10 (100%) | 10 (100%) | 10 (100%) | 10 (100%) | herbicidal efficacy, Amaranthus retroflexus (Amaranthus retroflexus [7]; 5 g a.i./10 a): 10 (100%); herbicidal efficacy, Amaranthus retroflexus (Amaranthus retroflexus [7]; 10 g a.i./10 a): 10 (100%)
